Legend:
L-selectin IgG chimera = target: T1, L-selectin IgG chimera (Homo sapiens, UniProt P14151); test: ELISA: blocking of L-selectin IgG chimera binding to 2,3sLex glycolipid; conditions: FIG. 5 and FIG. 6; several concentrations
T1 sequence (P14151 39-332 limits assumed): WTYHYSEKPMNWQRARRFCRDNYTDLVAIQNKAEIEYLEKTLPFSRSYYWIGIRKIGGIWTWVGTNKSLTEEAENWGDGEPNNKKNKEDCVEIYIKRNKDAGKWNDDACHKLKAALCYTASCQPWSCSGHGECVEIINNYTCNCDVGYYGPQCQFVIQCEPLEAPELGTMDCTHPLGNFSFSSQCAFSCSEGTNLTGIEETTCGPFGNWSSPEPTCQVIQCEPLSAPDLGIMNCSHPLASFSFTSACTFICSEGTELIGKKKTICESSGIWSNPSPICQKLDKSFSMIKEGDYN
Source text: FIG. 5 is a graph showing the results of Elisa assays carried out to determine the ability of three different compounds to block the binding of 2,3,sialyl-Le^x to L-selectin IgG chimera. The compounds tested were GM 1222, GM 1279 and GM 1398. The results are expressed as per cent of control binding.
FIG. 6 is a graph showing the results of Elisa assays carried out to determine the ability of GM 1221 to block the binding of 2,3,sialyl-Le^x to L-selectin IgG chimera. The results are expressed as per cent of control binding.
An ELISA assay was employed that uses recombinant fusion proteins composed of extracellular portions of the human selectins joined to human immunoglobulin heavy chain CH3, CH2, and hinge regions. See, for example, Walz et al., Science (1990) 250:1132; Aruffo et al., Cell (1991) 67:35; Aruffo et al., Proc. Natl. Acad. Sci. USA (1992) 89:2292. […]
The positive control is the signal produced by the soluble receptor when it is allowed to react with 2,3sLex glycolipid in the microtiter wells in the absence of any inhibitor. […] The signal produced by the receptor that had been previously treated with an inhibitor (recorded as O.D.), was divided by the signal produced by the positive control and multiplied by 100 to calculate the % receptor bound to the well, or as expressed in the figures, the per cent of control binding. […]

[1] = test system: neutrophil migration to the peritoneal cavity; test: Murine thioglycollate induced peritonitis model; format: in vivo, mice; conditions: FIG. 7; for inhibition of neutrophil migration into the peritoneum: female Swiss Webster mice, compound in tail vein, thioglycollate i.p., cells counted after three hours
Procedure: Mice were injected with saline alone (sal/-), thioglycollate and phosphate buffered saline (TG/PBS) or thioglycollate and GM 1221 or GM 1398 (TG/GM 1221 or TG/1398), and the number of neutrophils in the peritoneal cavity measured.
The efficaciousness of GM 1221, and GM 1398 was shown using a murine thioglycollate induced peritonitis model. The assay. materials and methods are known in the art, or are generally described by Lewinsohn, D. et al., J. Immun., 138:4313-4321 (1987), or Watson, S. et.al., Nature 349:164-166 (1991).
This assay measures the ability of the compounds to inhibit neutrophil migation to the peritoneal cavity, the migration being initiated by the presence of thioglycollate in the peritoneal cavity. Thioglycollate is a known and effective inflammatory agent that causes neutrophil migration into the mouse peritoneum when it is administered intraperitoneally. Lewinsohn, D. et al., J. Immun. (1987) 138:4313-4321.
Briefly, female Swiss Webster mice weighing about 25 grams were injected in the tail vein with 200 ul of phosphate buffered saline (PBS) with or without the appropriate compound. The pH of the solutions was adjusted to neutrality by the addition of either NaOH or HCL and sterilized by filtration through a 0.2 u filter.
Immediately following injection with the appropriate compound or PBS, the mice were injected intraperitoneally with 1 ml of thioglycollate medium prepared as described by the manufacturer, BBL. Three hours following injection of the thioglycollate solution the mice were sacrificed by CO2 asphyxiation, and the number of cells in the peritoneum removed by lavage with 5 ml of heparinized (5 U/ml) 0.9% sodium chloride solution containing 0.1% bovine serum albumin. Cell number was determined using a Coulter Counter. The cells were prepared for counting by diluting the lavage fluid with 1:50 of a commercial physiological isotonic solution, Isoton II, and the cells-lysed by adding S/P Lysing and Hemoglobin Reagent (1:100 final dilution). Cell nuclei were counted in a sized window with lower and upper limits set at 3.9 and 5.7 um, respectively.

| SMILES | inhibition of L-selectin binding to 2,3sLex glycolipid (per cent of control binding) (L-selectin IgG chimera) | inhibition of neutrophil migration into the peritoneum [1] | additional inhibition of neutrophil migration relative to GM 1221 ([1]; same mouse peritonitis model, comparison with GM 1221) |
| --- | --- | --- | --- |
| CC(OCCCCCCOC1O[C@@H](C)[C@@H](O)[C@@H](O)[C@@H]1O)C(=O)O (stereo partly shown) [GM 1221] | inhibits L-selectin binding | inhibit neutrophil migration into the peritoneum |  |
| CC(=O)N[C@H]1[C@H]([C@H](O)[C@H](O)CO)O[C@@](OCCCCCCO[C@@H]2O[C@@H](C)[C@@H](O)[C@@H](O)[C@@H]2O)(C(=O)O)C[C@@H]1O [GM 1398, 1-O-α-Neu5Ac-(6-O-α-L-Fucopyranosyl)-Hexane] |  | inhibit neutrophil migration into the peritoneum | about 30% |

— patent US5660992A, “Sialic acid/fucose based assay reagents and assay methods” (Glycomed Incorporated, priority 1995, dated 1997)
